Data on seven compounds can be found in ChEMBL document CHEMBL1201862, “PubChem BioAssay data set” (2004).

Among the test systems are ACHN; CCRF-CEM; HCT-116; HL-60; HOP-62; IGROV-1; K562; KM12; MOLT-4; NCI-H226; NCI-H23; NCI-H522; NCI/ADR-RES; OVCAR-4; OVCAR-8; RPMI-8226; SF-539; SK-MEL-5; SNB-19; UO-31.
Holding throughout (assay): NCI anticancer screen, dose series, 48 h

Structures are written as SMILES.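 Assay format: 96-well plates, 48-hour exposure. Abbreviation: GI50, concentration required for 50% inhibition of growth.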 Calls of active or inactive are those of the source. Cut-off read from the data, not from the text of the source: active = GI50 up to about 1.1 µM and inactive = higher. Some results are limits rather than exact numbers.

In the case of `COC1(OC)C(/C(N)=C\O)=NC(C)(C)N1O`, the GI50 with ACHN was > 100 µM (inactive); in the assay on CCRF-CEM, 37.1 µM (inactive); in the assay on HCT-116 it was > 100 µM (inactive); with HL-60 it was 20.4 µM (inactive); in the assay on HOP-62 it was > 100 µM (inactive); in the assay on IGROV-1 it was > 100 µM (inactive). In addition, the GI50 in the assay with K562 was > 100 µM (inactive); in the assay with KM12 it was > 100 µM (inactive); in the assay on MOLT-4 it was 66.5 µM (inactive); in the assay on NCI-H226, > 100 µM (inactive); in the assay on NCI-H23 it was > 100 µM (inactive); in the assay with NCI-H522, > 100 µM (inactive). The GI50 was > 100 µM (inactive) with NCI/ADR-RES; > 100 µM (inactive) in the assay with OVCAR-4; > 100 µM (inactive) with OVCAR-8; > 100 µM (inactive) in the assay on RPMI-8226; > 100 µM (inactive) with SF-539; 71.6 µM (inactive) in the assay with SK-MEL-5. The GI50 in the assay with SNB-19 and in the assay on UO-31 was > 100 µM (inactive) each time.

Take `C=C(C)[C@@]1(OC(=O)c2cc([N+](=O)[O-])cc([N+](=O)[O-])c2)C[C@@H]2CCCC[C@@H]21`: the GI50 in the assay with ACHN was > 100 µM (inactive); with CCRF-CEM, > 100 µM (inactive); with HCT-116, > 100 µM (inactive); in the assay with HL-60 it was 95.1 µM (inactive); in the assay on HOP-62, 62.4 µM (inactive); with IGROV-1, > 100 µM (inactive). Moreover, the GI50 with K562, in the assay with KM12, with MOLT-4, in the assay with NCI-H226, in the assay with NCI-H23 and in the assay on NCI-H522 was > 100 µM (inactive) in each case. Besides, the GI50 with NCI/ADR-RES is > 100 µM (inactive); with OVCAR-4, 56.2 µM (inactive); in the assay on OVCAR-8, > 100 µM (inactive); in the assay on RPMI-8226, 45.4 µM (inactive); with SF-539, > 100 µM (inactive); in the assay on SK-MEL-5, > 10 µM (inactive). Moreover, the GI50 in the assay on SNB-19 is > 100 µM (inactive); in the assay on UO-31 it was 16.4 µM (inactive).

Consider `CCCCN(Cc1ccccc1)/C(=N/C#N)N(Cc1ccccc1)Cc1ccccc1`, for which the GI50 was 12.1 µM (inactive) in the assay on ACHN; 26.7 µM (inactive) in the assay with CCRF-CEM; 5.16 µM (inactive) in the assay with HCT-116; 36.6 µM (inactive) in the assay on HL-60; 26.1 µM (inactive) in the assay with HOP-62; 17.6 µM (inactive) in the assay with IGROV-1. Besides, the GI50 in the assay on K562 was 14 µM (inactive); in the assay on KM12, 10.2 µM (inactive); with MOLT-4 it was > 100 µM (inactive); in the assay on NCI-H226 it was 23.1 µM (inactive); in the assay with NCI-H23, 11.3 µM (inactive); in the assay on NCI-H522, 7.26 µM (inactive). The GI50 with NCI/ADR-RES was 18.7 µM (inactive); in the assay on OVCAR-4, 15.8 µM (inactive); with OVCAR-8 it was 27.9 µM (inactive); in the assay with RPMI-8226 it was 12.6 µM (inactive); in the assay on SF-539 it was 21.9 µM (inactive); with SK-MEL-5 it was 14.8 µM (inactive). Also, the GI50 is 20.7 µM (inactive) in the assay on SNB-19 and 14.6 µM (inactive) in the assay on UO-31.

For `C/C(=N\Nc1nc2cc(F)ccc2s1)c1ccccn1`, the GI50 in the assay with ACHN was < 0.01 µM (active); in the assay on CCRF-CEM it was < 0.01 µM (active); in the assay with HCT-116, < 0.0161 µM (active); in the assay on HL-60, < 0.01 µM (active); with HOP-62 it was 0.381 µM (active); with IGROV-1, 0.0198 µM (active). The GI50 was < 0.0147 µM (active) with K562; 0.165 µM (active) in the assay with KM12; 0.0102 µM (active) with MOLT-4; < 0.0242 µM (active) in the assay with NCI-H226; 0.0352 µM (active) with NCI-H23; < 0.01 µM (active) with NCI-H522. The GI50 in the assay with NCI/ADR-RES was 0.0274 µM (active); with OVCAR-4, 1.06 µM (active); in the assay with OVCAR-8, 0.0194 µM (active); in the assay on RPMI-8226 it was 0.136 µM (active); in the assay on SF-539, 0.0906 µM (active); with SK-MEL-5, 0.053 µM (active). The figures for the GI50 in the assay with SNB-19 and in the assay with UO-31 were 0.391 µM (active) and 0.0192 µM (active), respectively.

For the compound `CN(C)c1ccc(/C=C(\NC(=O)c2ccccc2)C2=NC(CCC(=O)O)C(=O)O2)cc1` (stereo not given), the GI50 was > 50 µM (inactive) in the assay with ACHN; > 43.9 µM (inactive) with CCRF-CEM; > 50 µM (inactive) in the assay with HCT-116; 49.9 µM (inactive) with HL-60; 15.9 µM (inactive) in the assay on HOP-62; > 50 µM (inactive) with IGROV-1. Also, the GI50 in the assay on K562 was > 50 µM (inactive); in the assay with KM12, 42.8 µM (inactive); in the assay on MOLT-4, > 50 µM (inactive); in the assay on NCI-H226, > 50 µM (inactive); with NCI-H23 it was > 50 µM (inactive); in the assay on NCI-H522, 17.1 µM (inactive). For the same compound, the GI50 with NCI/ADR-RES was 49 µM (inactive); with OVCAR-4, > 35.1 µM (inactive); in the assay on OVCAR-8, > 41.4 µM (inactive); with RPMI-8226, 35.9 µM (inactive); with SF-539, > 35.2 µM (inactive); in the assay on SK-MEL-5 it was > 48.3 µM (inactive). The GI50 was 33.2 µM (inactive) with SNB-19 and > 50 µM (inactive) in the assay on UO-31.

Regarding `Cc1cc(C)nc(NS(=O)(=O)c2ccc(NC(=O)c3ccc4nc5ccccc5c(Nc5ccc(S(=O)(=O)Nc6nc(C)cc(C)n6)cc5)c4c3)cc2)n1`, the GI50 is > 100 µM (inactive) in the assay with ACHN; 36.6 µM (inactive) in the assay with CCRF-CEM; 57 µM (inactive) with HCT-116; 33 µM (inactive) in the assay on HL-60; > 100 µM (inactive) in the assay with HOP-62; 52.5 µM (inactive) in the assay on IGROV-1. Besides, the GI50 is 38 µM (inactive) in the assay on K562; 30.3 µM (inactive) with KM12; 28.5 µM (inactive) in the assay with MOLT-4; > 100 µM (inactive) in the assay on NCI-H226; 34 µM (inactive) in the assay on NCI-H23; 25.5 µM (inactive) in the assay on NCI-H522. Moreover, the GI50 in the assay with NCI/ADR-RES is > 100 µM (inactive); in the assay on OVCAR-4 it was 68.7 µM (inactive); with OVCAR-8, > 100 µM (inactive); in the assay on RPMI-8226, 37.2 µM (inactive); with SF-539, 88.3 µM (inactive); in the assay on SK-MEL-5 it was > 100 µM (inactive). In addition, the GI50 in the assay on SNB-19 and in the assay on UO-31 was > 100 µM (inactive) each time.

For `C[N+](C)(N)CCC[N+](C)(C)N`, the GI50 in the assay on ACHN, in the assay with CCRF-CEM, in the assay with HCT-116, with HL-60, in the assay on HOP-62 and in the assay with IGROV-1 was > 100 µM (inactive) throughout. The GI50 in the assay with K562, in the assay with KM12, in the assay on MOLT-4, with NCI-H226, in the assay on NCI-H23 and in the assay on NCI-H522 was > 100 µM (inactive) throughout. The GI50 in the assay with NCI/ADR-RES, in the assay with OVCAR-4, in the assay with OVCAR-8, in the assay with RPMI-8226, in the assay on SF-539 and in the assay with SK-MEL-5 was > 100 µM (inactive) in each case. The GI50 with SNB-19 and in the assay on UO-31 was > 100 µM (inactive) throughout.
